From patent US20250313535A1, “ALPHA 4 BETA 7 INTEGRIN MODULATORS AND USES THEREOF” (DICE MOLECULES SV, INC., priority 2022, published 2025)

Assays:
α4β1 integrin = α4β1 integrin (Homo sapiens (Human), UniProt P05556+P13612); experiment: Integrin Adhesion Assay: Protocol 5 (VCAM-coated plate, RPMI-8866 cells with stable LOF mutation of the ITGB7 gene); assay type: cell-based; settings: Protocol 5; RPMI-8866 cells with LOF mutation of ITGB7, VCAM; read-out: Mean IC50 α4β1 KO
Summary of the method: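 RPMI-8866 B cells with CRISPR/Cas9 ITGB7 knockout (clonal, verified by flow cytometry) adhered to VCAM-coated wells for 1 h at 37° C in HEPES/NaCl buffer with 1 mM MnCl2, 0.1 mM CaCl2, 1% BSA, 1% DMSO. Bound cells quantified by CellTiter-Glo luminescence after washing; % inhibition versus DMSO and control, 4-parameter fit.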

α4β7 integrin = α4β7 integrin (Homo sapiens (Human), UniProt P13612+P26010); experiment: Integrin Adhesion Assay: Protocol 4 (MAdCAM-coated plate, RPMI-8866 cells with stable LOF mutation of the ITGB1 gene); assay type: cell-based; settings: Protocol 4; RPMI-8866 cells with LOF mutation of ITGB1, MAdCAM; read-out: Mean IC50 α4β7 KO
Summary of the method: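 RPMI-8866 cells with CRISPR/Cas9 knockout of ITGB1 (2×10^6/mL) were added to MAdCAM-coated wells with compound (1% DMSO) in HEPES/NaCl buffer with 1 mM MnCl2, 0.1 mM CaCl2 and 1% BSA, then incubated 1 h at 37 °C. After four washes, adherent cells were quantified by CellTiter-Glo luminescence. Percent inhibition versus DMSO and control compound was fitted to 4-parameter curves.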

Sequence of α4β7 integrin (P13612 34-1032): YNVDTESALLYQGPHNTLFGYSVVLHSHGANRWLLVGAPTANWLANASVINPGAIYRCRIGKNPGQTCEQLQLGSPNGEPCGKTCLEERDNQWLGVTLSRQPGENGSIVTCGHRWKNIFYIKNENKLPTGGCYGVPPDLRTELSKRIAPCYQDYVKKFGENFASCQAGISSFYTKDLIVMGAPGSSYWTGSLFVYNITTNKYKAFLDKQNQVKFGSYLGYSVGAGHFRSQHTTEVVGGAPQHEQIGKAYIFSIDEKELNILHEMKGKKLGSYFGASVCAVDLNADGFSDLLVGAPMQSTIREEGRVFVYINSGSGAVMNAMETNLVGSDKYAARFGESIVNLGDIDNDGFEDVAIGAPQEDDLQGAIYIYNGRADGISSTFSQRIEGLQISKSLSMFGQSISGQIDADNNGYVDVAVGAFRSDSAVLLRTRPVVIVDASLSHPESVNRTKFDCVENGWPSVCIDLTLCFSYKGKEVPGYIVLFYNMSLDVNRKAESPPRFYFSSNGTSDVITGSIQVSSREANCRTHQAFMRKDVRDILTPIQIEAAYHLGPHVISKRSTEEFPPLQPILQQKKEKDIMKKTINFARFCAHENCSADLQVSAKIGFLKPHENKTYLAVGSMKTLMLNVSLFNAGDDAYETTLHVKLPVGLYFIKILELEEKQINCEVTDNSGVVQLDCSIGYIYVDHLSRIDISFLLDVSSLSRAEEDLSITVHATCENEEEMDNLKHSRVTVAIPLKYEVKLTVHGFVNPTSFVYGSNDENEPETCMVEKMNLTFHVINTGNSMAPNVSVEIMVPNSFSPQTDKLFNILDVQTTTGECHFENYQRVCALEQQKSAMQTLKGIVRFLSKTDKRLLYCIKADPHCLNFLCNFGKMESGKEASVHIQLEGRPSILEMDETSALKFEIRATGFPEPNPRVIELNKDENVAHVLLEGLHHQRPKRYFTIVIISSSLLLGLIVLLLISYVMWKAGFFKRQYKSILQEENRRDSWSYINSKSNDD
Sequence of α4β7 integrin (P26010 20-798): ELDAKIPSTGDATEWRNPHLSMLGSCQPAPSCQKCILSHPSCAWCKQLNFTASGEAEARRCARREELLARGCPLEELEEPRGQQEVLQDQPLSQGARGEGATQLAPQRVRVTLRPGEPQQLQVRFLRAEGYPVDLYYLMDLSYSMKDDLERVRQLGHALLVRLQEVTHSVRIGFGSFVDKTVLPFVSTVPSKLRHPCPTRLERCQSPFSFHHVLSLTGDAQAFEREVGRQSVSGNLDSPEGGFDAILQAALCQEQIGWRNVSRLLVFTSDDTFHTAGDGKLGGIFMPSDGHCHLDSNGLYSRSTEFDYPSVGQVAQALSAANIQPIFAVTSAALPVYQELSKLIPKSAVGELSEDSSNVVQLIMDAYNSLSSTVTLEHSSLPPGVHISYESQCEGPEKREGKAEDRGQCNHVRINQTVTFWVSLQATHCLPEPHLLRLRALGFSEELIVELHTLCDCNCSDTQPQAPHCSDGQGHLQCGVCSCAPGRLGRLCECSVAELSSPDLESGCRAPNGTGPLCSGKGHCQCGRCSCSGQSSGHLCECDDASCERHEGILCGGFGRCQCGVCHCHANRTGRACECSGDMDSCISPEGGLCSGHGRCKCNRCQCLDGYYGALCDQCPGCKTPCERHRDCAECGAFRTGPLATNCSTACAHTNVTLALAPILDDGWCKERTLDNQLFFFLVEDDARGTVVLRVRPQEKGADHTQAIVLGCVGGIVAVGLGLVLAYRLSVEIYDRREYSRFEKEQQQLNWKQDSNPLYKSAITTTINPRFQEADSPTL
Sequence of α4β1 integrin (P13612 34-1032): as the sequence (P13612 34-1032) above
Sequence of α4β1 integrin (P05556 21-798): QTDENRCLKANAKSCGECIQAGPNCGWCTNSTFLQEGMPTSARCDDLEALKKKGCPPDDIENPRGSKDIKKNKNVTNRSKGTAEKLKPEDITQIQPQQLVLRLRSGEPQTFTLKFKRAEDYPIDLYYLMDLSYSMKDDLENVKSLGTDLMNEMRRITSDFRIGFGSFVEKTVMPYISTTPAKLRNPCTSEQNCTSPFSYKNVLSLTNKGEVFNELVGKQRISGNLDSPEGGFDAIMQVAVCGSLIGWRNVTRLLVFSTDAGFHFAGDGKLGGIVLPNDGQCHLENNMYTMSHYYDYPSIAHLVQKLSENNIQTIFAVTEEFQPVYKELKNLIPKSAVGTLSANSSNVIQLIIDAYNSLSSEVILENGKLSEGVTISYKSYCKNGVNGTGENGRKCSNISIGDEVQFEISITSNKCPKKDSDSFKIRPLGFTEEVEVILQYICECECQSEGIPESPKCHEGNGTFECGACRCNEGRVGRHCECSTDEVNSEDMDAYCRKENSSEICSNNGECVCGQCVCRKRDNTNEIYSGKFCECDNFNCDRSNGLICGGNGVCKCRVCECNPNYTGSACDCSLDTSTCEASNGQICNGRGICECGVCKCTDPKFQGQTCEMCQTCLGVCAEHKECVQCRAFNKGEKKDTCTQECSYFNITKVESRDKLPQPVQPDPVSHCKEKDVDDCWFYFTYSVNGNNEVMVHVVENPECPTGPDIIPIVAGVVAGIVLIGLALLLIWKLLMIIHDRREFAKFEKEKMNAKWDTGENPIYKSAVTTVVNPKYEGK

IC50 (α4β1 integrin) [nM] | IC50 (α4β7 integrin) [nM] | Structure (SMILES)
> 1000 | < 10 | O=C(O)[C@H](Cc1cccc2c(-c3ncc(CN4CCCC(F)(F)CC4)c4ccccc34)cccc12)NC(=O)C1(C(F)(F)F)CCN(CC(F)F)CC1 [Compound 915]
100 to 1000 | < 10 | O=C(O)[C@H](Cc1cccc2c(-c3ncc(CN4CCCC4)c4ccccc34)cccc12)NC(=O)C1(C(F)(F)F)CCN(CC(F)F)CC1 [Compound 917]
> 1000 | < 10 | O=C(O)[C@H](Cc1cccc2c(-c3ncc(CN4CCC4)c4ccccc34)cccc12)NC(=O)C1(C(F)(F)F)CCN(CC(F)(F)F)CC1 [Compound 919]
> 1000 | 10 to 100 | CN(Cc1cnc(-c2cccc3c(C[C@H](NC(=O)C4(C(F)(F)F)CCN(CC(F)(F)F)CC4)C(=O)O)cccc23)c2ccccc12)CC(F)F [Compound 922]
> 1000 | < 10 | COc1cc(CN2CCC(F)(F)CC2)cnc1-c1cccc2c(C[C@H](NC(=O)C3(C(F)(F)F)CCN(CC(F)F)CC3)C(=O)O)cccc12 [Compound 928]
100 to 1000 | < 10 | CC[C@H]1CCCN1Cc1cnc(-c2cccc3c(C[C@H](NC(=O)C4(C(F)(F)F)CCN(CC(F)(F)F)CC4)C(=O)O)cccc23)c2ccccc12 [Compound 933]
100 to 1000 | < 10 | CC[C@H]1CCCN1Cc1cnc(-c2cccc3c(C[C@H](NC(=O)C4(C(F)(F)F)CCN(CC(F)F)CC4)C(=O)O)cccc23)c2ccccc12 [Compound 934]
100 to 1000 | < 10 | COc1ccc(CN2CCC(F)CC2)cc1-c1cccc2c(C[C@H](NC(=O)C3(C(F)(F)F)CCN(CC(F)F)CC3)C(=O)O)cccc12 [Compound 940]
> 1000 | < 10 | Cc1cc(CN2CCC(C)(C)CC2)cnc1-c1cccc2c(C[C@H](NC(=O)C3(C(F)(F)F)CCN(C4COC4)CC3)C(=O)O)cccc12 [Compound 945]
100 to 1000 | < 10 | O=C(O)[C@H](Cc1cccc2c(-c3ncc(CN4CCN(C5CC5)CC4)cc3C3CC3)cccc12)NC(=O)C1(C(F)(F)F)CCN(CC(F)(F)F)CC1 [Compound 948]
> 1000 | < 10 | O=C(O)[C@H](Cc1cccc2c(-c3ncc(CN4CCC[C@H](F)C4)cc3C3CC3)cccc12)NC(=O)C1(C(F)(F)F)CCN(CC(F)(F)F)CC1 [Compound 950]
100 to 1000 | < 10 | O=C(O)[C@H](Cc1cccc2c(-c3ncc(CN4CCC(F)(F)CC4)cc3C3CC3)cccc12)NC(=O)C1(C(F)(F)F)CCN(CC(F)F)CC1 [Compound 951]
100 to 1000 | < 10 | O=C(O)[C@H](Cc1cccc2c(-c3ncc(CN4CCN(C5CC5)CC4)cc3C3CC3)cccc12)NC(=O)C1(C(F)(F)F)CCN(CC(F)F)CC1 [Compound 952]
100 to 1000 | < 10 | O=C(O)[C@H](Cc1cccc2c(-c3ncc(CN4CCC[C@H](F)C4)cc3C3CC3)cccc12)NC(=O)C1(C(F)(F)F)CCN(CC(F)F)CC1 [Compound 953]
100 to 1000 | < 10 | O=C(O)[C@H](Cc1cccc2c(-c3ncc(CN4CCC[C@@H](F)C4)cc3C3CC3)cccc12)NC(=O)C1(C(F)(F)F)CCN(CC(F)F)CC1 [Compound 954]
100 to 1000 | < 10 | O=C(O)[C@H](Cc1cccc2c(-c3ncc(CCN4CCCCC4)c4ccccc34)cccc12)NC(=O)C1(C(F)(F)F)CCN(CC(F)F)CC1 [Compound 955]
100 to 1000 | < 10 | COc1cccc(CCN2CCCCC2)c1-c1cccc2c(C[C@H](NC(=O)C3(C(F)(F)F)CCN(CC(F)(F)F)CC3)C(=O)O)cccc12 [Compound 956]
100 to 1000 | < 10 | COc1ccc(CCN2CCC3(CCCCC3)CC2)c(OC)c1-c1cccc2c(C[C@H](NC(=O)C3(C(F)(F)F)CCN(CC(F)(F)F)CC3)C(=O)O)cccc12 [Compound 957]
100 to 1000 | < 10 | COc1ccc(CCN2CCC(F)(F)CC2)c(OC)c1-c1cccc2c(C[C@H](NC(=O)C3(C(F)(F)F)CCN(CC(F)(F)F)CC3)C(=O)O)cccc12 [Compound 958]
100 to 1000 | < 10 | COc1cccc(CCN2CCCC(C)(C)C2)c1-c1cccc2c(C[C@H](NC(=O)C3(C(F)(F)F)CCN(CC(F)(F)F)CC3)C(=O)O)cccc12 [Compound 961]
> 1000 | < 10 | O=C(O)[C@H](Cc1cccc2c(-c3ncc(CCN4CCCCC4)c4ccccc34)cccc12)NC(=O)C1(C(F)(F)F)CCN(CC(F)(F)F)CC1 [Compound 962]

The remaining lines, values behind:

Structure (SMILES) | IC50 (α4β1 integrin) [nM] | IC50 (α4β7 integrin) [nM]
CC1(C)CCCN(Cc2cnc(-c3cccc4c(C[C@H](NC(=O)C5(C(F)(F)F)CCN(CC(F)F)CC5)C(=O)O)cccc34)c3ccccc23)CC1 [Compound 916] | 100 to 1000 | < 10
O=C(O)[C@H](Cc1cccc2c(-c3ncc(CN4CCCC4)c4ccccc34)cccc12)NC(=O)C1(C(F)(F)F)CCN(CC(F)(F)F)CC1 [Compound 918] | > 1000 | < 10
O=C(O)[C@H](Cc1cccc2c(-c3ncc(CN4CCC4)c4ccccc34)cccc12)NC(=O)C1(C(F)(F)F)CCN(CC(F)F)CC1 [Compound 920] | > 1000 | < 10
CN(C)Cc1cnc(-c2cccc3c(C[C@H](NC(=O)C4(C(F)(F)F)CCN(CC(F)(F)F)CC4)C(=O)O)cccc23)c2ccccc12 [Compound 921] | 100 to 1000 | < 10
COc1cc(CN2CCC(C)(C)CC2)cnc1-c1cccc2c(C[C@H](NC(=O)C3(C(F)(F)F)CCN(CC(F)F)CC3)C(=O)O)cccc12 [Compound 924] | > 1000 | < 10
COc1cc(CN2CCC(C(F)(F)F)CC2)cnc1-c1cccc2c(C[C@H](NC(=O)C3(C(F)(F)F)CCN(CC(F)F)CC3)C(=O)O)cccc12 [Compound 925] | > 1000 | < 10
CC1CCN(Cc2cnc(-c3cccc4c(C[C@H](NC(=O)C5(C(F)(F)F)CCN(CC(F)F)CC5)C(=O)O)cccc34)c3ccccc23)CCC1(F)F (stereo partly shown) [Compound 926] | > 1000 | < 10
COc1ccc(CN2CCC(F)(F)CC2)cc1-c1cccc2c(C[C@H](NC(=O)C3(C(F)(F)F)CCN(CC(F)F)CC3)C(=O)O)cccc12 [Compound 927] | 100 to 1000 | < 10
CC[C@H]1CCCCN1Cc1cnc(-c2cccc3c(C[C@H](NC(=O)C4(C(F)(F)F)CCN(CC(F)(F)F)CC4)C(=O)O)cccc23)c2ccccc12 [Compound 929] | 100 to 1000 | < 10
CC[C@H]1CCCCN1Cc1cnc(-c2cccc3c(C[C@H](NC(=O)C4(C(F)(F)F)CCN(CC(F)F)CC4)C(=O)O)cccc23)c2ccccc12 [Compound 930] | 100 to 1000 | < 10
CC[C@@H]1CCCCN1Cc1cnc(-c2cccc3c(C[C@H](NC(=O)C4(C(F)(F)F)CCN(CC(F)(F)F)CC4)C(=O)O)cccc23)c2ccccc12 [Compound 931] | 100 to 1000 | < 10
CC[C@@H]1CCCN1Cc1cnc(-c2cccc3c(C[C@H](NC(=O)C4(C(F)(F)F)CCN(CC(F)(F)F)CC4)C(=O)O)cccc23)c2ccccc12 [Compound 935] | > 1000 | < 10
CC[C@@H]1CCCN1Cc1cnc(-c2cccc3c(C[C@H](NC(=O)C4(C(F)(F)F)CCN(CC(F)F)CC4)C(=O)O)cccc23)c2ccccc12 [Compound 936] | 100 to 1000 | < 10
COc1ccc(CN2CCC(C)(C)CC2)cc1-c1cccc2c(C[C@H](NC(=O)C3(C(F)(F)F)CCN(CC(F)F)CC3)C(=O)O)cccc12 [Compound 942] | 100 to 1000 | < 10
COc1ccc(CN2CC[C@H](F)C2)cc1-c1cccc2c(C[C@H](NC(=O)C3(C(F)(F)F)CCN(CC(F)F)CC3)C(=O)O)cccc12 [Compound 943] | 10 to 100 | < 10
COc1ccc(CN2CC[C@@H](F)C2)cc1-c1cccc2c(C[C@H](NC(=O)C3(C(F)(F)F)CCN(CC(F)F)CC3)C(=O)O)cccc12 [Compound 944] | 100 to 1000 | < 10
COc1ccc(CN2CCC(F)(F)CC2)c(OC)c1-c1cccc2c(C[C@H](NC(=O)C3(C(F)(F)F)CCN(CC(F)F)CC3)C(=O)O)cccc12 [Compound 946] | 100 to 1000 | 10 to 100
O=C(O)[C@H](Cc1cccc2c(-c3ncc(CN4CCC(F)(F)CC4)cc3C3CC3)cccc12)NC(=O)C1(C(F)(F)F)CCN(CC(F)(F)F)CC1 [Compound 947] | 100 to 1000 | < 10
O=C(O)[C@H](Cc1cccc2c(-c3ncc(CN4CCC[C@@H](F)C4)cc3C3CC3)cccc12)NC(=O)C1(C(F)(F)F)CCN(CC(F)(F)F)CC1 [Compound 949] | > 1000 | < 10
COc1cccc(CCN2CCCC(F)C2)c1-c1cccc2c(C[C@H](NC(=O)C3(C(F)(F)F)CCN(CC(F)(F)F)CC3)C(=O)O)cccc12 (stereo partly shown) [Compound 959] | 100 to 1000 | < 10
COc1cccc(CCN2CCC(C)(C)CC2)c1-c1cccc2c(C[C@H](NC(=O)C3(C(F)(F)F)CCN(CC(F)(F)F)CC3)C(=O)O)cccc12 [Compound 960] | > 1000 | < 10
COc1cc(CCN2CCCCC2)ccc1-c1cccc2c(C[C@H](NC(=O)C3(C(F)(F)F)CCN(CC(F)(F)F)CC3)C(=O)O)cccc12 [Compound 963] | 100 to 1000 | < 10
COc1cccc(CCN2CCC[C@H](F)C2)c1-c1cccc2c(C[C@H](NC(=O)C3(C(F)(F)F)CCN(CC(F)(F)F)CC3)C(=O)O)cccc12 [Compound 964] | > 1000 | 10 to 100
